“Also recorded” adds a separate entry of the source.
Experiments:
CT26 flank tumours = assay: Efficacy study, oral IC87114 and intravenous VVL15, CT26 flank tumours; format: in vivo, BALB/c mice; details: IC87114 50 mg kg^−1 oral gavage three hours before intravenous 1×10^8 PFU VVL15 (Group D), days 8, 11, 13, vs all other groups
orthotopic 4T1 tumours = assay: Efficacy study, oral IC87114 and intravenous VVL15, orthotopic 4T1 tumours; format: in vivo, BALB/c mice; details: 4T1 orthotopic; IC87114 75 mg kg^−1 oral gavage three hours before intravenous 1×10^8 PFU VVL15 (Group D), days 12, 15, 17; vs all other groups

With `Cc1ccccc1-n1c(Cn2cnc3c(N)ncnc32)nc2cccc(C)c2c1=O` [IC87114, 2-[(6-amino-9H-purin-9-yl)methyl]-5-methyl-3-(2-methylphenyl)-4(3H)-quinazolinone] the tumour burden (CT26 flank tumours) was “significantly reduces the tumour burden; also recorded: significantly less tumour burden; also recorded: reduced tumour burden” and the tumour burden (orthotopic 4T1 tumours) was “significantly reduces the tumour burden; also recorded: significantly less tumour burden; also recorded: reduced tumour burden”.

From patent US11351209B2 (priority 2016, dated 2022)
